Counter-ions that a name gives are not always drawn. Like-named read-outs stand apart in the source and are kept apart here.
Legend:
Type in all cases: biochemical
[1] = molecular target: T1, human JAK1 (a.a. 837-1142) (Homo sapiens, UniProt P23458); assay: In vitro JAK kinase assay (HTRF, phosphorylation of a biotinylated peptide), JAK1; conditions: read-out: JAK1 IC50
T1 construct: human JAK1 (a.a. 837-1142); His tag (N); made in house; host or cells: insect cells (baculovirus)
Procedure, shortened: (§1)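 Kinase activity was measured as phosphorylation of a biotinylated peptide, with ATP at 90 μM for JAK1, 30 μM for JAK2 and 3 μM for JAK3. Reactions ran 1 hr at room temperature, were stopped with EDTA plus SA-APC and Eu-Py20, and were read by HTRF after 40 minutes of antibody binding.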

[2] = molecular target: T2, human JAK2 (a.a. 828-1132) (Homo sapiens, UniProt O60674); assay: In vitro JAK kinase assay (HTRF, phosphorylation of a biotinylated peptide), JAK2
T2 construct: JAK2 (a.a. 828-1132); His tag (N); made in house; host or cells: insect cells (baculovirus)
T2 sequence (O60674 828-1132): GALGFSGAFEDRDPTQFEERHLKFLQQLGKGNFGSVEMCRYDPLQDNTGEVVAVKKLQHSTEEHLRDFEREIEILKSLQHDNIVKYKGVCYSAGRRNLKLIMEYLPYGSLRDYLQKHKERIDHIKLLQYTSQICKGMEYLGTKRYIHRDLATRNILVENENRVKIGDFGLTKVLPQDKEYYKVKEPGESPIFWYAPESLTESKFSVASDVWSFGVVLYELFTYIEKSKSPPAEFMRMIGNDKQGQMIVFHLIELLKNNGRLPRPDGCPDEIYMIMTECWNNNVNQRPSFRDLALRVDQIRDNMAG
Procedure, shortened: as §1

[3] = molecular target: T3, human JAK3 (a.a. 781-1124) (Homo sapiens, UniProt P52333); assay: In vitro JAK kinase assay (HTRF, phosphorylation of a biotinylated peptide), JAK3
T3 construct: JAK3 (a.a. 781-1124); His tag (N); made in house; host or cells: insect cells (baculovirus)
T3 sequence (P52333 781-1124): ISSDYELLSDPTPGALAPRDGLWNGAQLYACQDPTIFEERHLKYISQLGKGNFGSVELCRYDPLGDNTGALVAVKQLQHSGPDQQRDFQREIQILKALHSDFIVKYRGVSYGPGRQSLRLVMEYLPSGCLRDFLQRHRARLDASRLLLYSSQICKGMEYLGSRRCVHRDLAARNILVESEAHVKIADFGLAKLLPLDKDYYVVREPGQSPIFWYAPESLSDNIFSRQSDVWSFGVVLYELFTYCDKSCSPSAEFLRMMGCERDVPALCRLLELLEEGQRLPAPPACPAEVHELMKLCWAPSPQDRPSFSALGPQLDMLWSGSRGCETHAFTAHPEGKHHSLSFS
Procedure, shortened: as §1

TYK2 = TYK2 (Homo sapiens, UniProt P29597); assay: TYK2 kinase inhibition (Table A1)
TYK2, sequence (P29597 whole entry): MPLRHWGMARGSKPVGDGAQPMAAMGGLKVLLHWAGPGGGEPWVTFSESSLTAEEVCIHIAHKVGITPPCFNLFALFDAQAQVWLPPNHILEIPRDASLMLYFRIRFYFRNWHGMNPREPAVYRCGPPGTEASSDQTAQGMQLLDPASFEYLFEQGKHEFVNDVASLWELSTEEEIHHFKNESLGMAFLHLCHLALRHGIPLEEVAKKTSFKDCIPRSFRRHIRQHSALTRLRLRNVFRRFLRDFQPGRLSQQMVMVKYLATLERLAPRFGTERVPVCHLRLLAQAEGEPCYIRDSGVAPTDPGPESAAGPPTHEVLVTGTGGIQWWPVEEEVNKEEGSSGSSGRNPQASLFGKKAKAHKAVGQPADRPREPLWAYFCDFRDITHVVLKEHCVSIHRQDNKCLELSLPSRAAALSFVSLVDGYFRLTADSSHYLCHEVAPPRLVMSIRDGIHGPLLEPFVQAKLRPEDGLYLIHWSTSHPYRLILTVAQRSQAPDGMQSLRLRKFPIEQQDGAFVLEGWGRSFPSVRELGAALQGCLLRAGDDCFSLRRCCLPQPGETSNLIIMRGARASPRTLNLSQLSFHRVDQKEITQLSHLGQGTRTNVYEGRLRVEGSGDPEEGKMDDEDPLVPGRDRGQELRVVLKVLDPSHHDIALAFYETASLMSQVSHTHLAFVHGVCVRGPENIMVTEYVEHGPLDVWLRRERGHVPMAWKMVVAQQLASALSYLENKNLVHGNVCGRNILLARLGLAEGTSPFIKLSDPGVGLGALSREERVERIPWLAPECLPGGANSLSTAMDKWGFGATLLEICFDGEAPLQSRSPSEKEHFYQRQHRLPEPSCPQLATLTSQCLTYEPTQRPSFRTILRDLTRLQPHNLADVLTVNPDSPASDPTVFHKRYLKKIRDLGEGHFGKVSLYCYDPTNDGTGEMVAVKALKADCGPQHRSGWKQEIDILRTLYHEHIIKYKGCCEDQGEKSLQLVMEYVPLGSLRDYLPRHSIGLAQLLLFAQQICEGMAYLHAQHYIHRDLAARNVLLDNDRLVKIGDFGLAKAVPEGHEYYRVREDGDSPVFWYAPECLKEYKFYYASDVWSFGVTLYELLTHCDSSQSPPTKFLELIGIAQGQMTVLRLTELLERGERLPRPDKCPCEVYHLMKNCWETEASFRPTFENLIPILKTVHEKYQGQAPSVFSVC

[4] = molecular target: T4, Recombinant Human Anaplastic Lymphoma Kinase (Homo sapiens, UniProt Q9UM73); assay: ALK HTRF kinase assay
T4 construct: purchased Invitrogen, Carlsbad, Calif
T4 sequence (Q9UM73 19-1620): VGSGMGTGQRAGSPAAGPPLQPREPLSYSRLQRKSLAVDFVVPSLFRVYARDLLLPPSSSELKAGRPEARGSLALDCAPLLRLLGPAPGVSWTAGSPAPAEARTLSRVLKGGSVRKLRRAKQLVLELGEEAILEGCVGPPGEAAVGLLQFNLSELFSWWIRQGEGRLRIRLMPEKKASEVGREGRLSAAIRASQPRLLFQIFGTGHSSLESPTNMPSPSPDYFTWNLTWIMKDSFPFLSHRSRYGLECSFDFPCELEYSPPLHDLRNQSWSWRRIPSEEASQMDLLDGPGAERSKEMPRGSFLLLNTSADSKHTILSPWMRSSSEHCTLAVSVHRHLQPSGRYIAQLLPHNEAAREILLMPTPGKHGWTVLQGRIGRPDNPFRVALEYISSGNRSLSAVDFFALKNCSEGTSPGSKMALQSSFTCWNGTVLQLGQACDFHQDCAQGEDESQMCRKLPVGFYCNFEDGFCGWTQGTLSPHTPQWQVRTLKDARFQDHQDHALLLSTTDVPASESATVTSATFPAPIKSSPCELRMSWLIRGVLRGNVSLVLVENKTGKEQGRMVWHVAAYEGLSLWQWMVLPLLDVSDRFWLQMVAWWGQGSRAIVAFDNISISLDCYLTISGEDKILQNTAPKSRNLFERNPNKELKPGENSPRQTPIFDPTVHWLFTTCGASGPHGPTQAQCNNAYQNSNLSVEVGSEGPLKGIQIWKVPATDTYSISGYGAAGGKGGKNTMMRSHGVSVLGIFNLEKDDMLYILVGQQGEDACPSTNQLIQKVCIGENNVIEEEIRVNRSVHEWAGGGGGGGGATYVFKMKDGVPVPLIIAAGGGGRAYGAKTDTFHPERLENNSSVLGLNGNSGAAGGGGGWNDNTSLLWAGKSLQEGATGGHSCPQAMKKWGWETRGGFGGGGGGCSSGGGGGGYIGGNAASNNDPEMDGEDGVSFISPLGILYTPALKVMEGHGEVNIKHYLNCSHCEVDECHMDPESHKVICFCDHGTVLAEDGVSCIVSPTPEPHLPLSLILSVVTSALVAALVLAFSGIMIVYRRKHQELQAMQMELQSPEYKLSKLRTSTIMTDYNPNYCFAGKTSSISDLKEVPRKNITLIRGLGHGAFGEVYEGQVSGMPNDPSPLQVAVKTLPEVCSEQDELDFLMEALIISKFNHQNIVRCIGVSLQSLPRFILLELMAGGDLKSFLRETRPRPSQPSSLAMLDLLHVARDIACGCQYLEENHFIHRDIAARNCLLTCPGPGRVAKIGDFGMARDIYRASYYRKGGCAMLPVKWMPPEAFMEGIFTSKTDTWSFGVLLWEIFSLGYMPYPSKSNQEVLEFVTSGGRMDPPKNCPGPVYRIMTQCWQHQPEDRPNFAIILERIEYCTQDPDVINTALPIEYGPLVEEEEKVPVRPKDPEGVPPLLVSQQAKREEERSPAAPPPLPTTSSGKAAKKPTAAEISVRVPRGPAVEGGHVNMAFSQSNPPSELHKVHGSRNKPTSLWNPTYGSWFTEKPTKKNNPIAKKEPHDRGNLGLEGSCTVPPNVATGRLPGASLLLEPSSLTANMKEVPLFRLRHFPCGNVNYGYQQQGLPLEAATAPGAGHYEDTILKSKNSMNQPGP
Procedure, shortened: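 Biotinylated peptide substrate, recombinant human ALK; detection via europium-chelate antibody to phosphotyrosine paired with streptavidin-APC. Potency expressed as IC50 from four-parameter curve fitting.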

[5] = method AA1 (90 μM ATP) or AA2 (1000 μM ATP), not stated per value
[6] = method AA1 (30 μM ATP) or AA2 (1000 μM ATP), not stated per value
[7] = method AA1 (3 μM ATP) or AA2 (1000 μM ATP), not stated per value
[8] = compound at 500 nM or 1 mM, 90 μM ATP
[9] = percentage inhibition of the example compound at a concentration of 500 nM or 1 mM (not specified which)
[10] = Table B1, cells without percent sign
[11] = compound at a concentration of 500 nM or 1 mM (not specified), cells shown as percentage

T1 sequence (P23458 849-1154): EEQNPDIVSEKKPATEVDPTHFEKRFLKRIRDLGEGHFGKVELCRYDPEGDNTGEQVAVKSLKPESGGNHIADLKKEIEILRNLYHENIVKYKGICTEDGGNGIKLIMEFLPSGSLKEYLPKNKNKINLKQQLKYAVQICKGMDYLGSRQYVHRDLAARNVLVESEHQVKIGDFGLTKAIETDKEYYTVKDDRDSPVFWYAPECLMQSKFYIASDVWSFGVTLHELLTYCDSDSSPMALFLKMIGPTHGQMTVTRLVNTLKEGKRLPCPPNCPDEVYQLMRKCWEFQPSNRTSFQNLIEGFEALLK

Clc1cnc2nc1Nc1cccc(c1)OCCc1cccc(c1)N2 [Example D8, 6-Chloro-14-oxa-2,4,8,23-tetraazatetracyclo[15.3.1.1(3,7).1(9,13)]tricosa-1(21),3(23),4,6,9(22),10,12,17,19-nonaene trifluoroacetate]
IC50 ([1]; Table D1): 7.9 nM
IC50 ([2]; Table D1): 5.4 nM
IC50 ([3]; Table D1): 13 nM
IC50 (TYK2; Table D1): 19 nM
IC50 ([4]; Table D1, 90 μM ATP): 351 nM

COC(=O)c1cc2cc(c1)OCCSc1cccc(c1)Nc1nc(ncc1Cl)N2 [Example D43, Methyl 6-chloro-17-oxa-14-thia-2,4,8,24-tetraazatetracyclo[16.3.1.1(3,7).1(9,13)]tetracosa-1(22),3(24),4,6,9(23),10,12,18,20-nonaene-20-carboxylate trifluoroacetate]
IC50 ([1]; Table D1): 2.9 nM
IC50 ([2]; Table D1): 5.3 nM
IC50 ([3]; Table D1): 66 nM
IC50 (TYK2; Table D1): 37 nM
IC50 ([4]; Table D1, 90 μM ATP): 390 nM

CS(=O)(=O)N1CCC(CC(=O)Nc2ccc3cc2CCc2cncc(c2)Nc2ncc(Cl)c(n2)N3)CC1 [Example A79, N-[6-Chloro-2,4,8,18,22-pentaazatetracyclo[14.3.1.1(3,7).1(9,13)]docosa-1(20),3(22),4,6,9(21),10,12,16,18-nonaen-12-yl]-2-[1-(methylsulfonyl)piperidin-4-yl]acetamide bis(trifluoroacetate)]
IC50 [1, 5]: 0.5 nM
IC50 [2, 6]: 1.9 nM
IC50 [3, 7]: 46 nM
IC50 (TYK2): 3.6 nM
ALK % of inhibition at a concentration of 500 nM or 1 mM [4, 8]: 33%

N#Cc1cccnc1N1CCN(C(=O)Nc2ccc3cc2CCc2cncc(c2)Nc2ncc(Cl)c(n2)N3)CC1 [Example B311, N-[6-Chloro-2,4,8,18,22-pentaazatetracyclo[14.3.1.1(3,7).1(9,13)]docosa-1(20),3(22),4,6,9(21),10,12,16,18-nonaen-12-yl]-4-(3-cyanopyridin-2-yl)piperazine-1-carboxamide tris(trifluoroacetate)]
IC50 ([1]; Table B1): 20 nM
IC50 ([2]; Table B1): 170 nM
IC50 ([3]; Table B1): > 400 nM
IC50 (TYK2; Table B1): 146 nM
ALK % of inhibition at a concentration of 500 nM or 1 mM [4, 9]: 67%

O=S(=O)(Nc1ccc2cc1CCc1cccc(c1)Nc1ncc(Cl)c(n1)N2)c1ccccc1 [Example B136, N-[6-Chloro-2,4,8,22-tetraazatetracyclo[14.3.1.1(3,7).1(9,13)]docosa-1(20), 3(22),4,6,9(21),10,12,16,18-nonaen-12-yl]benzenesulfonamide trifluoroacetate]
IC50 ([1]; Table B1): 0.24 nM
IC50 ([2]; Table B1): 0.1 nM
IC50 ([3]; Table B1): 2.3 nM
IC50 (TYK2; Table B1): 0.76 nM
IC50 [4, 10]: 240 nM

O=C(Nc1ccc2cc1CCc1cncc(c1)Nc1ncc(Cl)c(n1)N2)N1CCN(c2ccc(Cl)cc2)CC1 [Example B307, N-[6-Chloro-2,4,8,18,22-pentaazatetracyclo[14.3.1.1(3,7).1(9,13)]docosa-1(20),3(22),4,6,9(21),10,12,16,18-nonaen-12-yl]-4-(4-chlorophenyl)piperazine-1-carboxamide tris(trifluoroacetate)]
IC50 ([1]; Table B1): 36 nM
IC50 ([2]; Table B1): 217 nM
IC50 ([3]; Table B1): > 400 nM
IC50 (TYK2; Table B1): 66 nM
ALK % of inhibition at a concentration of 500 nM or 1 mM [4, 9]: 74%

Cc1cccc(NC(=O)Nc2ccc3cc2CCc2cccc(c2)Nc2ncc(Cl)c(n2)N3)c1 [Example B90, N-[6-Chloro-2,4,8,22-tetraazatetracyclo[14.3.1.1(3,7).1(9,13)]docosa-1(20), 3(22),4,6,9(21),10,12,16,18-nonaen-12-yl]-N′-(3-methylphenyl)urea trifluoroacetate]
IC50 ([1]; Table B1): 5.2 nM
IC50 ([2]; Table B1): 7.7 nM
IC50 ([3]; Table B1): 73 nM
IC50 (TYK2; Table B1): 20 nM
IC50 [4, 10]: > 1000 nM

Cn1ccc2c(NC(=O)N3CCN(C(=O)COc4ccc5cc4CCc4cccc(c4)Nc4ncc(Cl)c(n4)N5)CC3)cccc21 [Example A11, 4-({[6-Chloro-2,4,8,22-tetraazatetracyclo[14.3.1.1(3,7).1(9,13)]docosa-1(20),3(22),4,6,9(21),10,12,16,18-nonaen-12-yl]oxy}acetyl)-N-(1-methyl-1H-indol-4-yl)piperazine-1-carboxamide trifluoroacetate]
IC50 [1, 5]: 3.4 nM
IC50 [2, 6]: 5.6 nM
IC50 [3, 7]: 16 nM
IC50 (TYK2): 9.5 nM
ALK % of inhibition at a concentration of 500 nM or 1 mM [4, 8]: 12%

O=C(CC1CCN(c2cccc(F)n2)CC1)Nc1ccc2cc1CCc1cncc(c1)Nc1ncc(Cl)c(n1)N2 [Example A181, N-[6-Chloro-2,4,8,18,22-pentaazatetracyclo[14.3.1.1(3,7).1(9,13)]docosa-1(20),3(22),4,6,9(21),10,12,16,18-nonaen-12-yl]-2-[1-(6-fluoropyridin-2-yl)piperidin-4-yl]acetamide tris(trifluoroacetate)]
IC50 [1, 5]: 6.3 nM
IC50 [2, 6]: 81 nM
IC50 [3, 7]: > 200 nM
IC50 (TYK2): 89 nM
ALK % of inhibition at a concentration of 500 nM or 1 mM [4, 8]: 42%

O=C(Nc1ccc2cc1CCc1cccc(c1)Nc1ncc(Cl)c(n1)N2)c1cccnc1Cl [Example B70, 2-Chloro-N-[6-chloro-2,4,8,22-tetraazatetracyclo[14.3.1.1(3,7).1(9,13)]docosa-1(20),3(22),4,6,9(21),10,12,16,18-nonaen-12-yl]nicotinamide bis(trifluoroacetate)]
IC50 ([1]; Table B1): 1.5 nM
IC50 ([2]; Table B1): 0.64 nM
IC50 ([3]; Table B1): 2.4 nM
IC50 (TYK2; Table B1): 2.5 nM
ALK % of inhibition at a concentration of 500 nM or 1 mM [4, 11]: 82%

N#Cc1ccc(N2CCN(C(=O)Nc3ccc4cc3CCc3cncc(c3)Nc3ncc(Cl)c(n3)N4)CC2)nc1 [Example B310, N-[6-Chloro-2,4,8,18,22-pentaazatetracyclo[14.3.1.1(3,7).1(9,13)]docosa-1(20),3(22),4,6,9(21),10,12,16,18-nonaen-12-yl]-4-(5-cyanopyridin-2-yl)piperazine-1-carboxamide tris(trifluoroacetate)]
IC50 ([1]; Table B1): 24 nM
IC50 ([2]; Table B1): 61 nM
IC50 ([3]; Table B1): > 400 nM
IC50 (TYK2; Table B1): 44 nM
ALK % of inhibition at a concentration of 500 nM or 1 mM [4, 9]: 74%

O=C(c1cc2cc(c1)Nc1nc(ncc1Cl)Nc1cccc(c1)CC2)N1CCCC(O)C1 (stereo not shown) [Example B12, 1-{[6-Chloro-2,4,8,22-tetraazatetracyclo[14.3.1.1(3,7).1(9,13)]docosa-1(20), 3(22),4,6,9(21),10,12,16,18-nonaen-11-yl]carbonyl}piperidin-3-ol trifluoroacetate]
IC50 ([1]; Table B1): 235 nM
IC50 ([2]; Table B1): 112 nM
IC50 ([3]; Table B1): 450 nM
IC50 (TYK2; Table B1): 312 nM
IC50 [4, 10]: > 10000 nM

Clc1cnc2nc1Nc1cccc(c1)OCc1cccc(c1)N2 [Example D7, 6-Chloro-14-oxa-2,4,8,22-tetraazatetracyclo[14.3.1.1(3,7).1(9,13)]docosa-1(20),3(22),4,6,9(21),10,12,16,18-nonaene trifluoroacetate]
IC50 ([1]; Table D1): 100 nM
IC50 ([2]; Table D1): 61 nM
IC50 ([3]; Table D1): > 100 nM
IC50 (TYK2; Table D1): > 100 nM
IC50 ([4]; Table D1, 90 μM ATP): > 10000 nM

CC(C)(C)OC(=O)N1CC[C@@H](NCc2ccc3cc2CCc2cccc(c2)Nc2ncc(Cl)c(n2)N3)C1 [Example B219, tert-Butyl (3R)-3-({[6-chloro-2,4,8,22-tetraazatetracyclo[14.3.1.1(3,7).1(9,13)]docosa-1(20),3(22),4,6,9(21),10,12,16,18-nonaen-12-yl]methyl}amino)pyrrolidine-1-carboxylate bis(trifluoroacetate)]
IC50 ([1]; Table B1): 6.6 nM
IC50 ([2]; Table B1): 16 nM
IC50 ([3]; Table B1): 29 nM
IC50 (TYK2; Table B1): 29 nM
ALK % of inhibition at a concentration of 500 nM or 1 mM [4, 11]: 26%

Nc1cc2cc(c1)Nc1nc(ncc1Cl)Nc1cccc(c1)CC2 [Example B21, 6-Chloro-2,4,8,22-tetraazatetracyclo[14.3.1.1(3,7).1(9,13)]docosa-1(20),3(22),4,6,9(21),10,12,16,18-nonaen-11-amine bis(trifluoroacetate)]
IC50 ([1]; Table B1): 18 nM
IC50 ([2]; Table B1): 6.3 nM
IC50 ([3]; Table B1): 21 nM
IC50 (TYK2; Table B1): 32 nM
IC50 [4, 10]: 1500 nM

CCc1ccc(NC(=O)Nc2ccc3cc2CCc2cccc(c2)Nc2ncc(Cl)c(n2)N3)cc1 [Example B98, N-[6-Chloro-2,4,8,22-tetraazatetracyclo[14.3.1.1(3,7).1(9,13)]docosa-1(20), 3(22),4,6,9(21),10,12,16,18-nonaen-12-yl]-N′-(4-ethylphenyl)urea trifluoroacetate]
IC50 ([1]; Table B1): 13 nM
IC50 ([2]; Table B1): 26 nM
IC50 ([3]; Table B1): 91 nM
IC50 (TYK2; Table B1): 38 nM
ALK % of inhibition at a concentration of 500 nM or 1 mM [4, 11]: 41%

Clc1cnc2nc1Nc1cccc(c1)CSCc1cccc(c1)N2 [Example D20, 6-Chloro-15-thia-2,4,8,23-tetraazatetracyclo[15.3.1.1(3,7).1(9,13)]tricosa-1(21),3(23),4,6,9(22),10,12,17,19-nonaene trifluoroacetate]
IC50 ([1]; Table D1): 41 nM
IC50 ([2]; Table D1): 32 nM
IC50 ([3]; Table D1): 88 nM
IC50 (TYK2; Table D1): 102 nM
IC50 ([4]; Table D1, 90 μM ATP): 598 nM

Source: patent publication US8871753B2, “Macrocyclic compounds and their use as kinase inhibitors” (Incyte Corporation, priority 2008, dated 2014)
